Here are results for 16 compounds from ChEMBL document CHEMBL1909046, “DrugMatrix in vitro pharmacology data”.

The target of data set [1] is 5-hydroxytryptamine receptor 2B (Homo sapiens, UniProt P41595). In kind it is cell membranes, CHO-K1, Membrane. Particulars: for pIC50: read-out: IC50; for pKi: read-out: Ki; for IC50: cho-k1. As to all read-outs here: in other assays of this panel Not Active means under 50% inhibition at 10 µM.
In data set [2] the target is T1, Neuropeptide Y receptor type 1 (Homo sapiens, UniProt P25929). Also: in other assays of this panel Not Active means under 50% inhibition at 10 µM.
T1 sequence (P25929 whole entry): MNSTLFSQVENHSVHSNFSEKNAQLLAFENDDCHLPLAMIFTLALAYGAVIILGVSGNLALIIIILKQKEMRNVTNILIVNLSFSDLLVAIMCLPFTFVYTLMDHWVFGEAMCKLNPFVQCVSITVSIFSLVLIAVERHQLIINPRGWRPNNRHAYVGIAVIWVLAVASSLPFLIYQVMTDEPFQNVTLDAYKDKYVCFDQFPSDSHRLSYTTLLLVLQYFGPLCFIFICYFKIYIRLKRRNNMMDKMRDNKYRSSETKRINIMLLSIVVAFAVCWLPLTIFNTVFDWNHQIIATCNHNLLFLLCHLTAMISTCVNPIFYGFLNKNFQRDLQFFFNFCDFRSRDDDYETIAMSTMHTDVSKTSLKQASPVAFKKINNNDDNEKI
In kind it is cell membranes, Membrane. The settings on record: sk-n-mc.

Data set [3] concerns the target T2, C-C chemokine receptor type 4 (Homo sapiens, UniProt P51679). Also: in other assays of this panel Not Active means under 50% inhibition at 10 µM.
T2 sequence (P51679 whole entry): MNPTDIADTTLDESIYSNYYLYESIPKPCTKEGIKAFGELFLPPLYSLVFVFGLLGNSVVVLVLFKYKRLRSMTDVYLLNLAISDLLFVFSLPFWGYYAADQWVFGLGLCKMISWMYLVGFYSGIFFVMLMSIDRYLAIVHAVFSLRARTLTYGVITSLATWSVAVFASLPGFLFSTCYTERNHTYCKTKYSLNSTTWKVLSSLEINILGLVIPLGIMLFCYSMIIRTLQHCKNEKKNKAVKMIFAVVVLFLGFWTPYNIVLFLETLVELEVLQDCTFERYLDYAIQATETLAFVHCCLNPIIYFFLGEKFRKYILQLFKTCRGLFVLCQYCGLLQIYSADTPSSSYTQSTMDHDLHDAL
In kind it is cell membranes, Membrane. The settings on record: chem-1.

The next data set addresses Estrogen receptor beta (Homo sapiens, UniProt Q92731). Particulars: sf9.
The target in data set [4] is Sigma non-opioid intracellular receptor 1 (Homo sapiens, UniProt Q99720). Kind of data set: DRUGMATRIX: Sigma1 radioligand binding (ligand: [3H] Haloperidol). In kind it is cell membranes, Jurkat, Membrane. The settings on record: Not Active = under 50% inhibition at 10 µM; for IC50: jurkat; for pIC50: read-out: IC50; for pKi: read-out: Ki.
Data set [5] addresses Kappa-type opioid receptor (Homo sapiens, UniProt P41145). The data set is described as follows: DRUGMATRIX: Opiate kappa (OP2, KOP) radioligand binding (ligand: [3H] Diprenorphine). In kind it is cell membranes, HEK293, Membrane. The settings on record: hek293; Not Active = under 50% inhibition at 10 µM.
In another data set the target is Cytochrome P450 2D6 (Homo sapiens, UniProt P10635). The settings on record: bti-tn-5b1-4. Also: in other assays of this panel Not Active means under 50% inhibition at 10 µM.

pIC50, pKi: −log10 of the molar value.

Estrogen receptor beta, sequence (Q92731 whole entry): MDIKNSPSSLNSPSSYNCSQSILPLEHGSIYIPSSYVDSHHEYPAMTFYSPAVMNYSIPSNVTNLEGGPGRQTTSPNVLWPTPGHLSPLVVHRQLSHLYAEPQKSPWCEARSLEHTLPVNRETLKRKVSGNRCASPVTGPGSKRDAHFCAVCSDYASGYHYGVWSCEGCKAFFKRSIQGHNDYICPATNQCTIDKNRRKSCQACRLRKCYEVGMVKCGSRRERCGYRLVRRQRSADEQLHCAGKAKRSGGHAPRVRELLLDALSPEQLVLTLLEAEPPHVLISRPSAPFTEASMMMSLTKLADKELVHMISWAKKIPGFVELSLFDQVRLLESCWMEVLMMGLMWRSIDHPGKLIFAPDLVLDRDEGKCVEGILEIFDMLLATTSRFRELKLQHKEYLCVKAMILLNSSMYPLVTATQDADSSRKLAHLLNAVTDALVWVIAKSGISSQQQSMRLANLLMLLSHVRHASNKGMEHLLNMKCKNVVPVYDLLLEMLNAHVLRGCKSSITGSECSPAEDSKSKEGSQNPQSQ
Kappa-type opioid receptor, sequence (P41145 whole entry): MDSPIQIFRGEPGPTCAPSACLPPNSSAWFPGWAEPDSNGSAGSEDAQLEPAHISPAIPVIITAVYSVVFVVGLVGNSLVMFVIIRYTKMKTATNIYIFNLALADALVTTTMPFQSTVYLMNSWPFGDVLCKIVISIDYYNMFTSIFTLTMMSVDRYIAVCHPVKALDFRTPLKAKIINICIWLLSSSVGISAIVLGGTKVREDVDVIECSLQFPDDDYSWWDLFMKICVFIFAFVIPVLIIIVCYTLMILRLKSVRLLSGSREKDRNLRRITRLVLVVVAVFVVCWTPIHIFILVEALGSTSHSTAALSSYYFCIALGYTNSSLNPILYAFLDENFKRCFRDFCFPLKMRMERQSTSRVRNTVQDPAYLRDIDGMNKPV
Cytochrome P450 2D6, sequence (P10635 whole entry): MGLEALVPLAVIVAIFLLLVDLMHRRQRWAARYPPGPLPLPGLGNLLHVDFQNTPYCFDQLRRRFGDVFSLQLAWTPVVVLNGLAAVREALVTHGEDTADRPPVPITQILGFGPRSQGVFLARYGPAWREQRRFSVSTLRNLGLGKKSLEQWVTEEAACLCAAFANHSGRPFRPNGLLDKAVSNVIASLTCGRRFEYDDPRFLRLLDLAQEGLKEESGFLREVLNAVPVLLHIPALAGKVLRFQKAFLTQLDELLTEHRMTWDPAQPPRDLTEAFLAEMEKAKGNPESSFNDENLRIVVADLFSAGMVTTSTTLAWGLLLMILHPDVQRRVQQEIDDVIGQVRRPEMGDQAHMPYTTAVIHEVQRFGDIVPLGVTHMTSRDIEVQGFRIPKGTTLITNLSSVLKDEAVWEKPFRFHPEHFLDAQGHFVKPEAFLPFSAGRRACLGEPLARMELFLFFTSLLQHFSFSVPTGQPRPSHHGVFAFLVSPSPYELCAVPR
5-hydroxytryptamine receptor 2B, sequence (P41595 whole entry): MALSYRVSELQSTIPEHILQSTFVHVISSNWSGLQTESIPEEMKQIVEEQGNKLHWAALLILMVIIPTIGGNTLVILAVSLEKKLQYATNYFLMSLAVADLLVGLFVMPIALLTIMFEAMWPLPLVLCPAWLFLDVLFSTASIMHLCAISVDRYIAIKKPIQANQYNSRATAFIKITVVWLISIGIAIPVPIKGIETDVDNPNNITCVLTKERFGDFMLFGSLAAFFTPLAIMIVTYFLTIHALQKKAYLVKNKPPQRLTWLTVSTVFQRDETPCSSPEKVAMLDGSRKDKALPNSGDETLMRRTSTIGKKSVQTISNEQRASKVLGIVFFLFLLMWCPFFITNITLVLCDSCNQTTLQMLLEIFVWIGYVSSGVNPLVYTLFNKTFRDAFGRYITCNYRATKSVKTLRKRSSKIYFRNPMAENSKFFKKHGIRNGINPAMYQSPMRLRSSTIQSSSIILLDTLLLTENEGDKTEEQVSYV
Sigma non-opioid intracellular receptor 1, sequence (Q99720 whole entry): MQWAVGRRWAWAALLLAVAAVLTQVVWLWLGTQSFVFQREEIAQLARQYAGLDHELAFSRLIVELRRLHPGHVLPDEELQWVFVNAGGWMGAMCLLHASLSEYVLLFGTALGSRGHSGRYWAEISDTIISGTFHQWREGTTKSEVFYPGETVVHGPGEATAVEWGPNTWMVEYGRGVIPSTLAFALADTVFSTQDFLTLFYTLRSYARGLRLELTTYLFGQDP

In general, pIC50 refers to the IC50 on a negative log10 scale, so that one unit is a factor of ten. As a reminder, the pKi is the Ki on a negative log10 scale, so that one unit is a factor of ten. `O=c1cc(N2CCOCC2)oc2c(-c3ccccc3)cccc12` [LY-294002]: the pIC50 in data set [1] is 4.44. The negative logarithm of the Ki (pKi) in data set [1] was 4.63. Further, the IC50 result (in data set [2]; in data set [3]; against Estrogen receptor beta; in data set [4]; in data set [5]; at Cytochrome P450 2D6) was “Not Active” in each case. The Ki result at Cytochrome P450 2D6 was “Not Active”.
As for `COc1ccc2[nH]cc(CCNC(C)=O)c2c1` [MELATONIN], the IC50 result (in data set [1]; in data set [2]; in data set [3]; against Estrogen receptor beta; in data set [4]; in data set [5]) was “Not Active” in each case. Also, the IC50 entry against Cytochrome P450 2D6 is “Not Active”. Further, the Ki result at Cytochrome P450 2D6 is “Not Active”.
Consider `NC(=O)C[S+]([O-])C(c1ccccc1)c1ccccc1` (stereo not drawn) [MODAFINIL], for which the IC50 result (in data set [1]; in data set [2]; in data set [3]; at Estrogen receptor beta; in data set [4]; in data set [5]) was “Not Active” each time. Also, the IC50 entry on Cytochrome P450 2D6 is listed as “Not Active”. The Ki entry at Cytochrome P450 2D6 is “Not Active”.
On to `CCN(CC)CCOCCC1=CCC2CC1C2(C)C` (stereo not drawn) [MYRTECAINE], for which the IC50 result (in data set [1]; in data set [2]; in data set [3]; against Estrogen receptor beta; in data set [4]; in data set [5]) was “Not Active” each time. Further, at Cytochrome P450 2D6, the IC50 entry was “Not Active”. Also, the Ki result at Cytochrome P450 2D6 is listed as “Not Active”.
Consider `O=C(O)c1cccnc1Nc1cccc(C(F)(F)F)c1` [NIFLUMIC ACID], for which the IC50 result (in data set [1]; in data set [2]; in data set [3]; on Estrogen receptor beta; in data set [4]; in data set [5]) was “Not Active” throughout. For the same compound, at Cytochrome P450 2D6, the IC50 result is “Not Active”. Further, on Cytochrome P450 2D6, the Ki entry is reported as “Not Active”.
Regarding `O=C(N/N=C/c1ccc([N+](=O)[O-])o1)c1cc([N+](=O)[O-])cc([N+](=O)[O-])c1O` [NIFURSOL], the IC50 result (in data set [1]; in data set [2]; in data set [3]; against Estrogen receptor beta; in data set [4]; in data set [5]) was “Not Active” each time. The IC50 entry on Cytochrome P450 2D6 is reported as “Not Active”. In addition, the Ki result on Cytochrome P450 2D6 was “Not Active”.
For `COC(=O)Nc1nc2ccc(C(=O)c3cccs3)cc2[nH]1` [NOCODAZOLE], the negative logarithm of the IC50 (pIC50) in data set [1] was 4.70. The pKi in data set [1] is 4.89. Besides, the IC50 entry (in data set [2]; in data set [3]; against Estrogen receptor beta; in data set [4]; in data set [5]; on Cytochrome P450 2D6) was “Not Active” each time. Besides, the Ki entry at Cytochrome P450 2D6 is reported as “Not Active”.
`CC(=O)O[C@H]1C(=O)[C@@]2(C)[C@H]([C@H](OC(=O)c3ccccc3)[C@]3(O)C[C@H](OC(=O)[C@H](O)[C@@H](NC(=O)c4ccccc4)c4ccccc4)C(C)=C1C3(C)C)[C@]1(OC(C)=O)CO[C@@H]1C[C@@H]2O` [PACLITAXEL]: the IC50 result (in data set [1]; in data set [2]; in data set [3]; against Estrogen receptor beta; in data set [4]; in data set [5]) was “Not Active” in each case. The IC50 entry against Cytochrome P450 2D6 is on record as “Not Active”. Besides, the Ki result at Cytochrome P450 2D6 is “Not Active”.
With `CCn1cc(C(=O)O)c(=O)c2cnc(N3CCCC3)nc21` [PIROMIDIC ACID], the IC50 result (in data set [1]; in data set [2]; in data set [3]; against Estrogen receptor beta; in data set [4]; in data set [5]) was “Not Active” each time. For the same compound, the IC50 result against Cytochrome P450 2D6 was “Not Active”. In addition, the Ki result on Cytochrome P450 2D6 is “Not Active”.
On to `C[n+]1ccccc1/C=N/O.[Cl-]` [PRALIDOXIME CHLORIDE], for which the IC50 result (in data set [1]; in data set [2]; in data set [3]; against Estrogen receptor beta; in data set [4]; in data set [5]) was “Not Active” in each case. The IC50 result against Cytochrome P450 2D6 was “Not Active”. Also, the Ki result at Cytochrome P450 2D6 was “Not Active”.
With `COc1cc2nc(N3CCN(C(=O)c4ccco4)CC3)nc(N)c2cc1OC` [PRAZOSIN], the pIC50 in data set [1] is 5.39. For the same compound, the pKi in data set [1] was 5.58. In addition, the IC50 result (in data set [2]; in data set [3]; against Estrogen receptor beta; in data set [4]; in data set [5]; on Cytochrome P450 2D6) was “Not Active” in each case. Also, on Cytochrome P450 2D6, the Ki entry was “Not Active”.
For the compound `C[C@]12C=CC(=O)C=C1CC[C@@H]1[C@@H]2[C@@H](O)C[C@@]2(C)[C@H]1CC[C@]2(O)C(=O)CO` [PREDNISOLONE], the IC50 entry (in data set [1]; in data set [2]; in data set [3]; at Estrogen receptor beta; in data set [4]; in data set [5]) was “Not Active” throughout. For the same compound, the IC50 entry against Cytochrome P450 2D6 was “Not Active”. Moreover, the Ki entry at Cytochrome P450 2D6 is “Not Active”.
As to `CC(=O)[C@H]1[C@H](C#N)C[C@H]2[C@@H]3CC=C4C[C@@H](O)CC[C@]4(C)[C@H]3CC[C@@]21C` [PREGNENOLONE CARBONITRILE], the IC50 entry (in data set [1]; in data set [2]; in data set [3]; on Estrogen receptor beta; in data set [5]; against Cytochrome P450 2D6) was “Not Active” throughout. Also, the negative-log IC50 (pIC50) in data set [4] was 4.67. Also, the pKi in data set [4] is 5.05. Further, on Cytochrome P450 2D6, the Ki entry was “Not Active”.
On to `CCCN(CCC)S(=O)(=O)c1ccc(C(=O)O)cc1` [PROBENECID], for which the IC50 result (in data set [1]; in data set [2]; in data set [3]; at Estrogen receptor beta; in data set [4]; in data set [5]) was “Not Active” throughout. The IC50 entry against Cytochrome P450 2D6 is “Not Active”. On Cytochrome P450 2D6, the Ki result is on record as “Not Active”.
As for `CCCOc1ccc(C(=O)OCCN(CC)CC)cc1N` [PROPARACAINE], the IC50 entry (in data set [1]; in data set [2]; in data set [3]; on Estrogen receptor beta; in data set [5]; on Cytochrome P450 2D6) was “Not Active” each time. Besides, the pIC50 in data set [4] is 6.62. Besides, the negative logarithm of the Ki (pKi) in data set [4] is 7.00. The Ki result on Cytochrome P450 2D6 is recorded as “Not Active”.
Regarding `Oc1cccc(O)c1O` [PYROGALLOL], the IC50 result (in data set [1]; in data set [2]; in data set [3]; against Estrogen receptor beta; in data set [4]; in data set [5]) was “Not Active” each time. The IC50 entry against Cytochrome P450 2D6 is given as “Not Active”. Besides, on Cytochrome P450 2D6, the Ki entry is on record as “Not Active”.
